{"source": "patent US20080318925A1", "about": "(ASTRAZENECA AB, priority 2007, published 2008)"}
{"molecular_target": "T1, GABAA2 receptors (α2, β3, γ3 receptor subunits transfected into Sf9 cells) (Homo sapiens, UniProt P47869+Q99928)", "T1 construct": "host or cells: Sf9 cells (membranes)", "T1 sequence (P47869 29-451)": "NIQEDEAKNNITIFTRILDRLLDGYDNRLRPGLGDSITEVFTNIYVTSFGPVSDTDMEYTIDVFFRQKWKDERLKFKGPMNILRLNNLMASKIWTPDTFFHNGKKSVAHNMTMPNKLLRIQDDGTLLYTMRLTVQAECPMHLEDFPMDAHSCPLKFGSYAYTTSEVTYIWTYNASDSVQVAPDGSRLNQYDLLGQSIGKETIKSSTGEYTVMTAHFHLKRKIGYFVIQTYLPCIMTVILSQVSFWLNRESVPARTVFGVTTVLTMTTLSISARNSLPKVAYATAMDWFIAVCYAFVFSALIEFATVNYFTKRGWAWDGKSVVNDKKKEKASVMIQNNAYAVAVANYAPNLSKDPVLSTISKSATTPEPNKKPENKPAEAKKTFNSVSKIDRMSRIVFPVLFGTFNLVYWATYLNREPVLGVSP", "T1 sequence (P28472 26-473 partner)": "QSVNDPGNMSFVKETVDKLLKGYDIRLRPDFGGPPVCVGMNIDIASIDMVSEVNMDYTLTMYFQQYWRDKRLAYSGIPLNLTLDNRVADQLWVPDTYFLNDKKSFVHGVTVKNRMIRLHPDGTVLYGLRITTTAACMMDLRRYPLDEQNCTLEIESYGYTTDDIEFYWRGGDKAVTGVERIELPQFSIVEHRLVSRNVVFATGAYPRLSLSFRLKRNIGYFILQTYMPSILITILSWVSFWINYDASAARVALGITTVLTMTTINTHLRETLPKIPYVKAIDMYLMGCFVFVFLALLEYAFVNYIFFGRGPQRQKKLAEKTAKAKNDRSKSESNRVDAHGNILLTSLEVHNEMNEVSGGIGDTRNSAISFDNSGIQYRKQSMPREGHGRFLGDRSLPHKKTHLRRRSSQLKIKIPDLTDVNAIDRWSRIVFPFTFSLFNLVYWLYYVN", "T1 sequence (Q99928 18-467)": "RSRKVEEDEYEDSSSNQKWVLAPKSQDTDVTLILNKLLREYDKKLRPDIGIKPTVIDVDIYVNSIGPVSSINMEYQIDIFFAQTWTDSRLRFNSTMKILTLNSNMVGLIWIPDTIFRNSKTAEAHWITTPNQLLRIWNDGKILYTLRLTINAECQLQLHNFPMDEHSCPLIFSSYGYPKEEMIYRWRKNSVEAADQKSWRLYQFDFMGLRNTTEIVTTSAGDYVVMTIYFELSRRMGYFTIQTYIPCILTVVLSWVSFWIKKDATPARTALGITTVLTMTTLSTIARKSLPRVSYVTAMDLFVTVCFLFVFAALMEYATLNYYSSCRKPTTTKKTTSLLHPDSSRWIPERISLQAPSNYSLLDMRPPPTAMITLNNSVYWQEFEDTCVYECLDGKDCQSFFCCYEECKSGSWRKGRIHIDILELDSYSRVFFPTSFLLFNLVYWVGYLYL", "assay": "GABAA2 binding method ([3H]-flunitrazepam displacement)", "conditions": "[3H]-flunitrazepam ~2 nM, Sf9 membranes, 1 hr at 4° C.", "protocol": "In some embodiments, the binding test was directed to a subtype of GABAA receptors, such as GABAA1 receptors (i.e., those containing the α1 subunit), GABAA2 receptors (i.e., those containing the α2 subunit), GABAA3 receptors (i.e., those containing the α3 subunit) and GABAA5 receptors (i.e., those containing the α5 subunit).\n• Assay and Wash Buffer: 50 mM Tris-Citrate, 200 mM NaCl, pH 7.8 Compounds at 10 mM in DMSO: Put 75 μl in column 1 of compound plate.\nFlumazenil, 10 mM (for NSB)\n[^3H]-Flunitrazepam (Cat #NET567): Prepare 10× stock=20 nM, [F} in assay=˜2 nM\n1. […] Add 5 ul of 30 uM flumazenil to wells 12 D-E for 50% control wells.\n2. Spot 2 μl of compound dilutions into dry plate (Automation Program 3). Manually spot 2 μl 10 mM flumazenil into wells 12 F-H for nonspecific control.\n3. Make 1:100 dilution in assay buffer (2 μl into 200 μl) and dispense 25 μl compound into assay plates (Automation Program 4).\n4. Dispense 200 μl membranes into assay plate (Automation Program 5).\n5. Add 25 μl [^3H]-Flunitrazepam (Automation Program 6). Incubate for 1 hr at 4° C.\n6. Collect membranes on a cell harvester onto GF/B filter plates (pre-wet with dH2O and wash 5× 400 μl/well, with cold assay buffer. (First 3 washes are considered hot; last two are cold.)\n7. Dry plates for 2-3 hours at RT.\n8. Add 40 μl Microscint 40/well (Automation Program 7); seal plates. Count on a TopCount.\nData is analyzed by calculating percent of control, IC50, and Ki in an XLfit template. The following formula is used in the templates: […]", "units": {"Ki": "nM"}}
{"smiles": "CCCNC(=O)c1nnc2c(-c3cc(Cl)ccc3OC)c(F)ccc2c1N", "Ki": 0.327}
{"smiles": "CCCNC(=O)c1nnc2c(-c3c(F)cccc3OC)c(F)ccc2c1N", "Ki": 0.341}
{"smiles": "CCCNC(=O)c1nnc2c(-c3ccccc3C(F)(F)F)cccc2c1N", "Ki": 0.364}
{"smiles": "CCCNC(=O)c1nnc2c(-c3cc(OC)cc(OC)c3)c(F)ccc2c1N", "Ki": 0.552}
{"smiles": "CCCNC(=O)c1nnc2c(-c3cccc(F)c3F)cccc2c1N", "Ki": 0.558}
{"smiles": "CCCNC(=O)c1nnc2c(-c3ccc(OC)nc3OC)cccc2c1N", "Ki": 0.56}
{"smiles": "CCCNC(=O)c1nnc2c(-c3ccc(F)cc3OC)c(F)ccc2c1N", "Ki": 0.565}
{"smiles": "CCCNC(=O)c1nnc2c(-c3ccc(OC)c(OC)c3OC)c(F)ccc2c1N", "Ki": 0.6}
{"smiles": "CCCNC(=O)c1nnc2c(-c3ccc(OC)cc3F)c(F)ccc2c1N", "Ki": 0.613}
{"smiles": "CCCNC(=O)c1nnc2c(-c3cncc(C(=O)N4CCC4)c3)cccc2c1N", "Ki": 2.34}
{"smiles": "CCCNC(=O)c1nnc2c(-c3ccc(OC)cc3C(F)(F)F)cccc2c1N", "Ki": 2.42}
{"smiles": "CCCNC(=O)c1nnc2c(-c3ccc(OC)cc3OC)cccc2c1N", "Ki": 2.5}
{"smiles": "CCCNC(=O)c1nnc2c(-c3cccnc3)cccc2c1N", "Ki": 2.6}
{"smiles": "CCCNC(=O)c1nnc2c(-c3ccc(OC)cc3OC)c(C#N)ccc2c1N", "Ki": 2.69}
{"smiles": "CCCNC(=O)c1nnc2c(-c3cnc(OC)nc3OC)c(Cl)ccc2c1N", "Ki": 2.73}
{"smiles": "CCCNC(=O)c1nnc2c(-c3ccc(OC)c(F)c3)c(F)ccc2c1N", "Ki": 2.88}
{"smiles": "CCCNC(=O)c1nnc2c(-c3cc(C)ccc3OC)c(Cl)ccc2c1N", "Ki": 2.89}
{"smiles": "CCCNC(=O)c1nnc2c(-c3cccc(OC)c3F)cccc2c1N", "Ki": 3.41}
{"smiles": "CCCNC(=O)c1nnc2c(-c3cccc(C(=O)N4CCC4)c3)cccc2c1N", "Ki": 3.44}
{"smiles": "CCCNC(=O)c1nnc2c(-c3ccc(OC)c(OC)c3)cccc2c1N", "Ki": 3.88}
{"smiles": "CCCNC(=O)c1nnc2c(-c3ccc(C)nc3)cccc2c1N", "Ki": 4.11}
{"smiles": "CCCNC(=O)c1nnc2c(-c3ccc(OC)cc3F)cccc2c1N", "Ki": 4.17}
{"smiles": "CCCNC(=O)c1nnc2c(-c3cncc(OC)c3)cccc2c1N", "Ki": 4.21}
{"smiles": "CCCNC(=O)c1nnc2c(-c3cccc(OC)c3)cccc2c1N", "Ki": 4.34}
{"smiles": "CCCNC(=O)c1nnc2c(-c3ccc(F)cc3OC)cccc2c1N", "Ki": 4.34}
{"smiles": "CCNC(=O)c1nnc2c(-c3cnccc3OC)cccc2c1N", "Ki": 4.36}
{"smiles": "CCCNC(=O)c1nnc2c(-c3cc(OC)cc(OC)c3)cccc2c1N", "Ki": 5}
{"smiles": "CCCNC(=O)c1nnc2c(-c3cc(F)ccc3C)cccc2c1N", "Ki": 5.56}
{"smiles": "CCCNC(=O)c1nnc2c(-c3ccc(OC)cc3OC)c(Cl)ccc2c1N", "Ki": 5.71}
{"smiles": "CCCNC(=O)c1nnc2c(-c3cc(F)cc(F)c3OC)c(F)ccc2c1N", "Ki": 5.78}
{"smiles": "CCCNC(=O)c1nnc2c(-c3ccccc3)c(Cl)ccc2c1N", "Ki": 5.82}
{"smiles": "CCCNC(=O)c1nnc2c(-c3ccc(OC)c(OC)c3OC)cccc2c1N", "Ki": 6.75}
{"smiles": "CCCNC(=O)c1nnc2c(-c3nc(Br)ccc3OC)cccc2c1N", "Ki": 7.51}
{"smiles": "CCCNC(=O)c1nnc2c(-c3ccc(Cl)cc3)c(F)ccc2c1N", "Ki": 8.72}
{"smiles": "CCCNC(=O)c1nnc2c(-c3ccc(F)cc3)cccc2c1N", "Ki": 9.58}
{"smiles": "CCCNC(=O)c1nnc2c(-c3cccc(S(C)(=O)=O)c3)cccc2c1N", "Ki": 10.4}
{"smiles": "CCCNC(=O)c1nnc2c(-c3cc(F)ccc3OC)cccc2c1N", "Ki": 10.5}
{"smiles": "CCNC(=O)c1nnc2c(-c3cc(C)ccc3OC)cccc2c1N", "Ki": 10.5}
{"smiles": "CCCNC(=O)c1nnc2c(-c3cccc(F)c3OC)cccc2c1N", "Ki": 10.9}
{"smiles": "CCCNC(=O)c1nnc2c(-c3cc(C)ccc3C)c(Cl)ccc2c1N", "Ki": 11.2}
{"smiles": "CCCNC(=O)c1nnc2c(-c3cccc(Cl)c3)cccc2c1N", "Ki": 12.3}
{"smiles": "CCCNC(=O)c1nnc2c(-c3cnc4ccccc4c3)cccc2c1N", "Ki": 12.3}
{"smiles": "CCCCNC(=O)c1nnc2c(-c3cc(C)ccc3OC)cccc2c1N", "Ki": 13.3}
{"smiles": "CCCNC(=O)c1nnc2c(-c3cc(OC)ccc3OC)c(Cl)ccc2c1N", "Ki": 13.9}
{"smiles": "CCNC(=O)c1nnc2c(-c3cnc(OC)nc3OC)cccc2c1N", "Ki": 14.4}
{"smiles": "COc1ccc(C)cc1-c1cccc2c(N)c(C(=O)NC3CC3)nnc12", "Ki": 15.2}
{"smiles": "CCCNC(=O)c1nnc2c(-c3ccc(OC)cc3)cccc2c1N", "Ki": 15.4}
{"smiles": "CCCNC(=O)c1nnc2c(-c3cc(Cl)cc(Cl)c3)c(F)ccc2c1N", "Ki": 16.1}
{"smiles": "CCCNC(=O)c1nnc2c(-c3ccc(C)c(C)c3)cccc2c1N", "Ki": 16.8}
{"smiles": "CCCNC(=O)c1nnc2c(-c3ccc(OC)c(C)c3)cccc2c1N", "Ki": 17.6}
{"smiles": "CCCNC(=O)c1nnc2c(-c3cc(C(=O)N4CCC4)ccc3OC)cccc2c1N", "Ki": 18.4}
{"smiles": "CCCNC(=O)c1nnc2c(-c3ccsc3)cccc2c1N", "Ki": 18.6}
{"smiles": "Nc1c(C(=O)NCC2CC2)nnc2c(-c3ccccc3)cccc12", "Ki": 18.6}
{"smiles": "CCCNC(=O)c1nnc2c(-c3ccccn3)cccc2c1N", "Ki": 19.4}
{"smiles": "CCCNC(=O)c1nnc2c(-c3cnc(OC)nc3)cccc2c1N", "Ki": 19.5}
{"smiles": "CCCNC(=O)c1nnc2c(-c3ccc(F)c(F)c3)cccc2c1N", "Ki": 20}
{"smiles": "CCCNC(=O)c1nnc2c(-c3ccc(OC)c(F)c3)cccc2c1N", "Ki": 20.2}
{"smiles": "CCCNC(=O)c1nnc2c(-c3cnccn3)cccc2c1N", "Ki": 20.4}
{"smiles": "CCCNC(=O)c1nnc2c(-c3cc(Cl)cc(Cl)c3)cccc2c1N", "Ki": 22}
{"smiles": "CCCNC(=O)c1nnc2c(-c3cnc(OC)c(F)c3)cccc2c1N", "Ki": 22.1}
{"smiles": "CCCNC(=O)c1nnc2c(-c3cnc(OC)c(Cl)c3)cccc2c1N", "Ki": 25.4}
{"smiles": "CCCNC(=O)c1nnc2c(-c3ccc(N(C)C)cc3)cccc2c1N", "Ki": 26.6}
{"smiles": "CCCNC(=O)c1nnc2c(-c3ccc(C)cc3)cccc2c1N", "Ki": 29}
{"smiles": "CCCNC(=O)c1nnc2c(-c3ccc4[nH]ccc4c3)cccc2c1N", "Ki": 35}
{"smiles": "CNC(=O)c1nnc2c(-c3cc(C)ccc3OC)cccc2c1N", "Ki": 35.8}
{"smiles": "CCCNC(=O)c1nnc2c(-c3cc(C)c(OC)c(C)c3)cccc2c1N", "Ki": 35.8}
{"smiles": "CCCNC(=O)c1nnc2c(-c3ccc(Cl)cc3)cccc2c1N", "Ki": 37.2}
{"smiles": "CCCNC(=O)c1nnc2c(-c3ccc4ccccc4c3)cccc2c1N", "Ki": 43.3}
{"smiles": "CCCNC(=O)c1nnc2c(-c3cc(F)ccc3F)c(F)ccc2c1N", "Ki": 45.8}
{"smiles": "CCCNC(=O)c1nnc2c(-c3cccc(OC(F)(F)F)c3)cccc2c1N", "Ki": 47.8}
{"smiles": "CCCNC(=O)c1nnc2c(-c3cccc(C(=O)O)c3)cccc2c1N", "Ki": 53.8}
{"smiles": "CCCNC(=O)c1nnc2c(-c3cc(OC)c(OC)c(OC)c3)cccc2c1N", "Ki": 56.5}
{"smiles": "CCCNC(=O)c1nnc2c(-c3ccccc3)c(OC)ccc2c1N", "Ki": 91.4}
{"smiles": "CCCNC(=O)c1nnc2c(-c3cc(C(F)(F)F)cc(C(F)(F)F)c3)cccc2c1N", "Ki": 356}
{"smiles": "CNC(=O)c1nnc2c(-c3cnc(OC)nc3OC)cccc2c1N", "Ki": 514}
{"smiles": "CCCNC(=O)c1nnc2c(-c3c(OC)cccc3OC)cccc2c1N", "Ki": 624}
{"smiles": "CCNC(=O)c1nnc2c(-c3cnc(OC)c(F)c3)cccc2c1N", "Ki": 9}
{"smiles": "COc1ccc(F)cc1-c1cccc2c(N)c(C(=O)NC3CC3)nnc12", "Ki": 8.22}
{"smiles": "COc1ccncc1-c1cccc2c(N)c(C(=O)NC3CC3)nnc12", "Ki": 0.785}
{"smiles": "COc1ncccc1-c1cccc2c(N)c(C(=O)NC3CC3)nnc12", "Ki": 0.501}
